Where a name gives a salt, the structure may show the parent alone.
Experiments:
[1] = Assay 2. Stability in Simulated Intestinal Fluid (SIF); format: in vitro ADME; settings: SIF pH 6.7 with pancreatin, 1 μM, 37° C.
How it was run: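 Compounds at 1 µM (from 1 mM DMSO stock) were incubated at 37 °C with agitation in simulated intestinal fluid: FaSSIF in pH 6.7 phosphate buffer with pancreatin. Aliquots taken from T0 onward were quenched with acetonitrile and analyzed by LC/MS for degradation rate.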

[2] = Assay 3. In vitro Colonic Material Stability Assay; format: in vitro ADME; settings: colonic material slurry, anaerobic, 1 or 10 μM
[3] = Assay 1. Stability in Simulated Gastric Fluid (SGF); format: in vitro ADME; settings: SGF pH 1.6 with pepsin, 1 μM, 37° C.
How it was run: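 Compound at 1 μM final (from 1 mM DMSO stock) incubated at 37° C in SGF: NaCl medium at pH 1.6 with FaSSIF powder and 0.1 mg/mL pepsin, prepared fresh. Aliquots taken at T0 and regular intervals, quenched with equal volume acetonitrile; LC/MS gives degradation rate.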

[4] = test system: naïve CD4+ T cells; test: Human regulatory T cell differentiation assay; format: cell-based; settings: 6 days
Description: Peripheral blood mononuclear cells (PBMCs) from whole blood donated by health volunteers were separated by Ficoll-Paque gradient centrifugation and naïve CD4^+ T cells were subsequently isolated using magnet beads (EasySep™ Human Naïve CD4^+ T Cell Isolation Kit, Cambridge, MA). For regulatory T cell (Treg) differentiation assay, naïve CD4^+ T cells were cultured (1-10×10^4 cells) in CTS OpTmizer medium for 6 days and stimulated with 5 ng/ml TGF-β, 100 U/ml IL-2, and ImmunoCult™ Human […] T Cell Activator; Stemcell #10990) with/without our Compounds. Cell viability was determined using a viability dye (eBioscience Fixable Viability Dye eFluor 780: ThermoFisher 65-0865-14) at 1:500 dilution. The cells were gated for Treg, defined as Live, CD11c^−, CD14^−, CD19^−, CD8^−, CD4^+, CD3^+, CD25^+, FOXP3^+. Percent (%) Tregs were calculated as percentage of CD4^+, CD25^+, FOXP3^+ cells over total CD4 T cells. Statistical analysis was performed with GraphPad Prism Software Using One-Way ANOVA.

[5] = test system: type II collagen arthritis; test: In vivo rheumatoid arthritis model (semi-established type II collagen arthritis); design: species or system Lewis rats; settings: 10 mg/kg PO BID, rats
Description: A study was conducted to determine the efficacy of test articles dosed by the oral (PO) route for inhibition of the inflammation (paw swelling), cartilage destruction, and bone resorption that occurs in semi-established type II collagen arthritis in female Lewis rats. Rats (10 per group) were injected intradermally (ID) with porcine type II collagen to induce arthritis; one group of rats (4 per group) served as vehicle-treated naïve controls. […] Positive controls were treated PO, BID with the reference compound Tofacitinib citrate (10 mg/kg). The rats were euthanized for necropsy on study day 21 (animals #1-5 in each group, animals #1-2 in naïve group) or 22 (animals #6-10 in each group, animals #3-4 in naïve group). Efficacy evaluation was based on animal body weights (Table 9), daily ankle caliper measurements (FIG. 4), ankle diameter expressed as area under the curve (AUC) (Table 10), terminal hind paw weights (Table 11), histopathologic evaluation of hind paws (Ankle Inflammation score: Table 12, Ankle Pannus score: Table 13, Ankle Cartilage Damage score: Table 14, Ankle Bone Resorption score: Table 15, Ankle Periosteal Bone score: Table 16, Ankle Periosteal Bone Width: Table 17) and knees (Knee Inflammation score: Table 18, Knee Pannus score: Table 19, Knee Cartilage Damage score: Table 20, Knee Bone Resorption score: Table 21), and relative spleen to body weight ratio (Table 22). Terminal serum was analyzed by enzyme-linked immunosorbent assay (ELISA) for anti-type II collagen antibodies (IgG) (Table 23). […] Statistics were conducted using ordinary one-way ANOVA with Dunnett's multiple comparison correction in GraphPad Prism.

[6] = test system: neutrophil; test: Neutrophil chemokine production assay; format: cell-based, human; settings: 12 h
Description: A volume 25 mL of human blood was layered over 15 mL of Histopaque®-1077 and centrifuged at 500 g, RT, for 30 min with no break applied to the centrifuge. The PBMC band and Histopaque®-1077 layer were removed leaving behind the bottom red layer which was mixed with 40 mL of 1× red blood cell (RBC) lysis buffer (Sigma-Aldrich) was and split into two 50 mL tubes. The volume for both fractions was brought to 50 mL with RBC lysis buffer, mixed by inversion, and then incubated at RT for 10 min. Solutions were centrifuged at 250 g, for 10 min at RT and the supernatant liquids removed. The reddish pellets were re-suspended in 1 mL of RBC lysis buffer and combined. The cell suspension was incubated for 5 min at RT in RBC lysis buffer. After incubation 45 mL of Hanks Balanced Salt Solution with no calcium, magnesium or phenol red (HBSS−) was added, the cell suspension was spun (250 g for 10 min at RT), and supernatant liquids were removed. The white pellet was re-suspended in 1 mL of HBSS−, and cell counts were determined. The neutrophil cell suspension was brought to a concentration of 1.11e6 cells/mL in RPMI complete (Sigma-Aldrich), and 180 μL of cell suspension was transferred to all wells within a sterile 96-well tissue culture treated plate resulting in 2.0e5 cells/well. […] After incubation, 10 μL of 2 μg/mL LPS solution in RPMI complete was added to each well except for control wells, which received an additional 10 μL of media. Cells were incubated for 12 h (37° C., 5% CO2), after which plates were centrifuged at 250 g, RT, for 5 min and supernatant liquids were obtained and stored at −80° C. until analyzed via Luminex® Multiplex Assay for various chemokines and cytokines. Three data points were acquired from two different blood donors and averaged.

CC(=O)O[C@H]1OC[C@H](OC(C)=O)[C@H](OC(C)=O)[C@H]1OC(C)=O [Compound 219, (2R,3R,4S,5S)-tetrahydro-2H-pyran-2,3,4,5-tetrayl tetraacetate]
Assay 2 (SIF) (% @ Remaining 4 hours) [1]: A (<25% of the tested compound remaining)
Assay 3 (% Remaining at 24 h) [2]: A (<25% of the tested compound remaining)
Assay 1 (SGF) (% Remaining @ 1 hour) [3]: C (>75% of the tested compound remaining)

CC[C@H]1[C@@H](O)[C@@H]2[C@H](CC[C@]3(C)[C@@H]([C@H](C)CCC(=O)O)CC[C@@H]23)[C@@]2(C)CC[C@@H](O)C[C@@H]12 [Obeticholic acid]
Cell viability % DMSO ([4]; 100 uM): = (90%> <110%: =)

CCC(=O)O [Propionic acid]
Cell viability % DMSO ([4]; 3 mM): = (90%> <110%: =)

CN(CCOc1ccc(CC2SC(=O)NC2=O)cc1)c1ccccn1 (stereo not shown) [Rosiglitazone, rosiglitazone]
Cell viability % DMSO ([4]; 10 uM): = (90%> <110%: =)
Cell viability % DMSO ([4]; 100 uM): − (<90%: −)

C[C@@H]1CCN(C(=O)CC#N)C[C@@H]1N(C)c1ncnc2[nH]ccc12 [Tofacitinib citrate, reference compound]
Mean Ankle Diameter AUC (mm*day) [5]: 73.82 mm*day
Mean Ankle Periosteal Bone width (um) [5]: 0.00 um
Mean Knee Inflammation score (0-5) [5]: 0.10
Mean Terminal hind paw weights [5]: 1.4321 g
Mean body weight change, day −1 to 21 (%) [5]: 20.2%
Relative Spleen to Body Weight (Mean) [5]: 0.1796
Mean Ankle Bone Resorption score (0-5) ([5]; 0 = normal, 5 = severe): 0.00
Mean Ankle Cartilage Damage score (0-5) ([5]; 0 = normal, 5 = severe): 0.00
Mean Ankle Pannus score (0-5) ([5]; 0 = normal, 5 = severe): 0.00
Mean Ankle Periosteal Bone score (0-5) ([5]; 0 = normal, 5 = severe): 0.00
Mean Ankle inflammation score (0-5) ([5]; 0 = normal, 5 = severe): 1.4321
Mean Knee Bone Resorption score (0-5) ([5]; 0 = normal, 5 = severe): 0.00
Mean Knee Cartilage Damage score (0-5) ([5]; 0 = normal, 5 = severe): 0.00
Mean Knee Pannus score (0-5) ([5]; 0 = normal, 5 = severe): 0.00
Serum IgG ([5]; terminal serum ELISA for anti-type II collagen antibodies): 2524.70 µg/mL

CCCC(=O)O [butyrate]
% IL-8 (Vehicle + LPS = 100%) ([6]; 500.0 μM): ++ (++ = <70%Vehicle)
% MIP-1α (Vehicle + LPS = 100%) ([6]; 500.0 μM): +++ (+++ = <50% Vehicle)
% MIP-1β (DMSO + LPS = 100%) ([6]; 500.0 μM): +++ (+++ = <50% Vehicle)
% IL-8 (Vehicle + LPS = 100%) ([6]; 1000.0 μM): ++ (++ = <70%Vehicle)
% MIP-1α (Vehicle + LPS = 100%) ([6]; 1000.0 μM): +++ (+++ = <50% Vehicle)
% MIP-1β (DMSO + LPS = 100%) ([6]; 1000.0 μM): +++ (+++ = <50% Vehicle)
